Measurements: patent US20150307520A1, “NOVEL HETEROARYL AND HETEROCYCLE COMPOUNDS, COMPOSITIONS AND METHODS THEREOF” (HUTCHISON MEDIPHARMA LIMITED, priority 2012, published 2015)

What was measured:
Assay type in all cases: biochemical
p110γ = p110γ (Homo sapiens, UniProt P48736); experiment: Transcreener KINASE Assay, kinase inhibition of p110γ; conditions: for PI3Kγ IH % @ 1 uM: 1 uM test compound; for IC50: read-out: PI3Kγ IC50
Experimental: Kinase Inhibition assays of p110α/p85α, p110β/p85α, p110δ/p85α and p110γ PI3K kinases including p110α/p85α, p110δ/p85α and p110γ are purchased from Invitrogen, and p110β/p85α is from Millipore. Primary screening data and IC50 values are measured using Transcreener™ KINASE Assay (Bellbrook, Catalog #3003-10K). […] It is a universal, homogenous, high throughput screening (HTS) technology using a far-red, competitive fluorescence polarization immunoassay based on the detection of ADP to monitor the activity of enzymes that catalyze group transfer reactions. Briefly, the Transcreener KINASE Assay is designed as a simple two-part, endpoint assay. […] The plate is sealed and incubated for 80 min at room temperature. Next, 25 ul ADP detection mix is added per well. The plate is sealed again and incubated for 60 min at room temperature, and then measure fluorescence polarization by Tecan Infinite F500 Reader. Data is analyzed and IC50s are generated using the add-in software for Microsoft Excel, Xlfit™ (version 2.0).

p110δ/p85α = p110δ/p85α (Homo sapiens, UniProt O00329); experiment: Transcreener KINASE Assay, kinase inhibition of p110δ/p85α; conditions: for PI3Kδ IH % @ 1 uM: 1 uM test compound; for IC50: read-out: PI3Kδ IC50
Chain of p110δ/p85α (O00329 whole entry): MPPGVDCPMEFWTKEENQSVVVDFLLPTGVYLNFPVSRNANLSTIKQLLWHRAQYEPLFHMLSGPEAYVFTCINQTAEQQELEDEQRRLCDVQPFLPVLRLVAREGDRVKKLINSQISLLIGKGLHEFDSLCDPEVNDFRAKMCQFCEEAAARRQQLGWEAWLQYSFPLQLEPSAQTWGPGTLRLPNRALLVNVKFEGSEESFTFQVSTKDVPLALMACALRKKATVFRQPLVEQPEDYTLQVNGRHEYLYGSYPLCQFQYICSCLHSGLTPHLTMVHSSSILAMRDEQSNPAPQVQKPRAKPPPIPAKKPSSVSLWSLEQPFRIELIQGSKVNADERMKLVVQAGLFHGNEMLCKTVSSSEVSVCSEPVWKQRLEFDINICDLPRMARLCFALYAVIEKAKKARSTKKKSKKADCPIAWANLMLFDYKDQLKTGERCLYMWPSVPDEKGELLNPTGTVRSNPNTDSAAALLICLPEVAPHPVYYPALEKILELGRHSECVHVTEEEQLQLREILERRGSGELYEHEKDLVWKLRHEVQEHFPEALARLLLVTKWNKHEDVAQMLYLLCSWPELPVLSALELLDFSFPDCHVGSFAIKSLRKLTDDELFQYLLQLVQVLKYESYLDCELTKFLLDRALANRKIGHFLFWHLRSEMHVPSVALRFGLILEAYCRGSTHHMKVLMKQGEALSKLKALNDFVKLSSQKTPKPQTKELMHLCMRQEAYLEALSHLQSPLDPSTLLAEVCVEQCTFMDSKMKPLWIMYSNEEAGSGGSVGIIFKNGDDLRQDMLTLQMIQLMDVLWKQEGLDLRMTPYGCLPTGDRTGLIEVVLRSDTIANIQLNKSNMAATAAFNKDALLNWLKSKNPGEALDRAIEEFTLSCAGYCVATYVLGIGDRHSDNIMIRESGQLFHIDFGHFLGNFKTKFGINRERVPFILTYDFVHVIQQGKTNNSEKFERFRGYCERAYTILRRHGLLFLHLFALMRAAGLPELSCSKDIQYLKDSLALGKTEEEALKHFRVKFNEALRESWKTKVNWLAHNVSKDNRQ
Chain of p110δ/p85α (P27986 whole entry partner): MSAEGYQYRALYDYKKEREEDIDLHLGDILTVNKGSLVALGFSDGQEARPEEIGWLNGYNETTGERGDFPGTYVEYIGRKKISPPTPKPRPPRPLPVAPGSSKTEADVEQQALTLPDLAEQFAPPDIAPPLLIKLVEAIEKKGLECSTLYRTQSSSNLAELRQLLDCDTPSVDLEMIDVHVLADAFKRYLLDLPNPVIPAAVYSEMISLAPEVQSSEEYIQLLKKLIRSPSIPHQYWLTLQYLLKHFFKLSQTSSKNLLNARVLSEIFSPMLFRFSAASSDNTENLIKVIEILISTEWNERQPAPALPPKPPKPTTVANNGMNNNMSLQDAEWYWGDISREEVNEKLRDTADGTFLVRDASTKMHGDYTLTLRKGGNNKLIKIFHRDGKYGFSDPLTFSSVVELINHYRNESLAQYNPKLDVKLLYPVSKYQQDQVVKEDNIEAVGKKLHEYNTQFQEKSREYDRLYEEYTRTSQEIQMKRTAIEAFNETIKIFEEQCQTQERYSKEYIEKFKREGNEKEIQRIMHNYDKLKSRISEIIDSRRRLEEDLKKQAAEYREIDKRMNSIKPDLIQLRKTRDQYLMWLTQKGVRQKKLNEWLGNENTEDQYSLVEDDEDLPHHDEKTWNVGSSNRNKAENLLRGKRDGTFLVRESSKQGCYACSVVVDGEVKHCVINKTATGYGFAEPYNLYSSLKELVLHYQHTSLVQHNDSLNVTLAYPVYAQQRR
Experimental: (§1) PI3K kinases including p110α/p85α, p110δ/p85α and p110γ are purchased from Invitrogen, and p110β/p85α is from Millipore.
(§2) Primary screening data and IC50 values are measured using Transcreener™ KINASE Assay (Bellbrook, Catalog #3003-10K). […] It is a universal, homogenous, high throughput screening (HTS) technology using a far-red, competitive fluorescence polarization immunoassay based on the detection of ADP to monitor the activity of enzymes that catalyze group transfer reactions. Briefly, the Transcreener KINASE Assay is designed as a simple two-part, endpoint assay.
(§3) In the first step, the 25 ul kinase reaction is performed by preparing a reaction mixture containing 5 ul test compound (2% DMSO final concentration), 10 ul kinase, buffer (50 mM HEPES, 100 mM NaCl, 1 mM EGTA, 0.03% CHAPS, 3 mM MgCl2, and freshly supplemented 1 mM DTT), and 10 ul 30 uM PIP2/10 uM ATP. The plate is sealed and incubated for 80 min at room temperature. Next, 25 ul ADP detection mix is added per well. The plate is sealed again and incubated for 60 min at room temperature, and then measure fluorescence polarization by Tecan Infinite F500 Reader.
(§4) Data is analyzed and IC50s are generated using the add-in software for Microsoft Excel, Xlfit™ (version 2.0). IH %=(ADP amount under 2% DMSO-ADP amount under test compound)/ADP amount under 2% DMSO.

p110β/p85α = p110β/p85α (Homo sapiens, UniProt P42338); experiment: Transcreener KINASE Assay, kinase inhibition of p110β/p85α; conditions: for PI3Kβ IH % @ 1 uM: 1 uM test compound; for IC50: read-out: PI3Kβ IC50
Chain of p110β/p85α (P42338 whole entry): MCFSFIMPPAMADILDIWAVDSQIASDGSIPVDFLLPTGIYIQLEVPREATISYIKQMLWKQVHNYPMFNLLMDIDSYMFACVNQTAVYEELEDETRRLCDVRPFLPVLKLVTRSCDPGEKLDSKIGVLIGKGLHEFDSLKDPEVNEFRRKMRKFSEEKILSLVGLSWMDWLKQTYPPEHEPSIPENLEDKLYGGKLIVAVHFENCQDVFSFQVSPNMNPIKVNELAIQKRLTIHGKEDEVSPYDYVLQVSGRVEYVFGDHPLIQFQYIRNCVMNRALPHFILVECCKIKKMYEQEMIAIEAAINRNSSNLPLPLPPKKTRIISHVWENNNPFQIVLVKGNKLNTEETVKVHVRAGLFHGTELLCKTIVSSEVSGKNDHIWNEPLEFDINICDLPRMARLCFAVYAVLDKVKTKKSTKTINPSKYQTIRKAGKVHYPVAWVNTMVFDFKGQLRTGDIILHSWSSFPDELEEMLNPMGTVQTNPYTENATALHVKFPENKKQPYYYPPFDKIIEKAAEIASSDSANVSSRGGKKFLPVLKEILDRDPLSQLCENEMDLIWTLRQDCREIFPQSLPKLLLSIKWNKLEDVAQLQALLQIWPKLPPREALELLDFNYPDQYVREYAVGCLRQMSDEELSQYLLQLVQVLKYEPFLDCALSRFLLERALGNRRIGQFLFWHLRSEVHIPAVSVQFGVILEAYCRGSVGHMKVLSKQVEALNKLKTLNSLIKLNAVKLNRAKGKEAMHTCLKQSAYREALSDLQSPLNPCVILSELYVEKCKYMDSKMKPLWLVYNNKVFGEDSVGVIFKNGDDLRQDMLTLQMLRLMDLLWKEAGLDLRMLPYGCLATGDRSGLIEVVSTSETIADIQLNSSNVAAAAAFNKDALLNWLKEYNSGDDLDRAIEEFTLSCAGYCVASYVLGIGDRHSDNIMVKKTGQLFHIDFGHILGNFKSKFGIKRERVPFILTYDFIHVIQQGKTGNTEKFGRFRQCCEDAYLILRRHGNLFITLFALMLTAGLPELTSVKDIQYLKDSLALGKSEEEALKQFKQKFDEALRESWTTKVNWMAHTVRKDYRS
Chain of p110β/p85α (P27986 2-724 partner): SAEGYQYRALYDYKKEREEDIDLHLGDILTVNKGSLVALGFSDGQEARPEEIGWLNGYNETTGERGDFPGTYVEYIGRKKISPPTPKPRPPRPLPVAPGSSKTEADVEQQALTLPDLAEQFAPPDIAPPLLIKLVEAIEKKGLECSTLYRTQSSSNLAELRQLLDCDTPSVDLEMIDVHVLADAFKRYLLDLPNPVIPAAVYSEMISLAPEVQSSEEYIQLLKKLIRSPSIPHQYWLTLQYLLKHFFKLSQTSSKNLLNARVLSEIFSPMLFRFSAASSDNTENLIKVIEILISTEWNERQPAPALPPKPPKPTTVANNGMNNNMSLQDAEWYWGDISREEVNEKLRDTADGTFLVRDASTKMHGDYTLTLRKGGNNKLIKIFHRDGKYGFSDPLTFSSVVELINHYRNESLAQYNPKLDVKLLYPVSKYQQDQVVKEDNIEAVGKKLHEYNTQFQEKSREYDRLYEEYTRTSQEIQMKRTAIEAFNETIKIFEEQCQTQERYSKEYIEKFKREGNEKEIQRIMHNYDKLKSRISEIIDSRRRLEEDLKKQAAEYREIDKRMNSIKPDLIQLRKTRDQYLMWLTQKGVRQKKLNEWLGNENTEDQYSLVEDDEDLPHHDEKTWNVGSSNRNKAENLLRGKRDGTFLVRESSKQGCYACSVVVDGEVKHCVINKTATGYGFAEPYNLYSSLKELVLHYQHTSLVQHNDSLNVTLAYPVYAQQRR
Experimental: as §1, §2, §3, §4

Chain of p110γ (P48736 whole entry): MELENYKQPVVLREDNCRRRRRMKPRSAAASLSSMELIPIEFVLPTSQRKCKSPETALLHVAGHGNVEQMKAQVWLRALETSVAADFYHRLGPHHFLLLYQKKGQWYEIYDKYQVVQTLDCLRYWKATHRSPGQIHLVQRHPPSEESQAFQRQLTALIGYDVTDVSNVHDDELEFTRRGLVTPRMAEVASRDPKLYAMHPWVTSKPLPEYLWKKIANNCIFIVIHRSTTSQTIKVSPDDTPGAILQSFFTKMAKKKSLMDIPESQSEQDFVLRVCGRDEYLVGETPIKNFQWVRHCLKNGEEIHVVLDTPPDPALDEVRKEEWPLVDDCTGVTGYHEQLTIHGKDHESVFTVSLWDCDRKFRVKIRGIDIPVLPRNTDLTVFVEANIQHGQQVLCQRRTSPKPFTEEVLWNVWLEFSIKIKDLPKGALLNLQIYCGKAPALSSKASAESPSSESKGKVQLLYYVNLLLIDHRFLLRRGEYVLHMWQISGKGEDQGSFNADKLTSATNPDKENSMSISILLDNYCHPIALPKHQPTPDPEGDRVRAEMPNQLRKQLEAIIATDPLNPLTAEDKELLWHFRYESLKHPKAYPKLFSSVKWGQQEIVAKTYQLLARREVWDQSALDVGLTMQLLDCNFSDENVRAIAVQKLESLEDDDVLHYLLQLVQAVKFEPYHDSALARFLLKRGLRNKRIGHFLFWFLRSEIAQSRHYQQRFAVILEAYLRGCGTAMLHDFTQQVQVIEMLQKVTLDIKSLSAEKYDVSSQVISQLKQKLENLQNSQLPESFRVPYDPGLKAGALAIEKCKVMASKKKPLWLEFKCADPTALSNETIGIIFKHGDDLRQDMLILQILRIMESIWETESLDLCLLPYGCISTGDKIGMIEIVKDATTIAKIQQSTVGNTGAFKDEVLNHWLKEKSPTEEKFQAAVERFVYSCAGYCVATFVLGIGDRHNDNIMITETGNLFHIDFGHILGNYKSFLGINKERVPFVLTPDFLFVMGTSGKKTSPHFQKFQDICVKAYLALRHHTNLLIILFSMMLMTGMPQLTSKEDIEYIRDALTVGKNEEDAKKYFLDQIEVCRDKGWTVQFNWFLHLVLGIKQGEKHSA

Row | SMILES | PI3Kγ IH % @ 1 uM (p110γ) | IC50 (p110γ) | PI3Kδ IH % @ 1 uM (p110δ/p85α) | IC50 (p110δ/p85α) | PI3Kβ IH % @ 1 uM (p110β/p85α) | IC50 (p110β/p85α)
1 | Nc1ncc(C(F)(F)F)c(N2CCC[C@H]2c2nn3ccc(Cl)c3c(=O)n2-c2ccccc2)n1 [Compound 50] | 89.3% | 0.149 µM | >100% | 0.029 µM | 4.4% | –
2 | O=c1c2c(C3CC3)ccn2nc([C@@H]2CCCN2c2ncnc3[nH]cnc23)n1-c1ccccc1 [Compound 51] | 89.1% | 0.293 µM | 80.1% | 0.343 µM | −7.4% | –
3 | N#Cc1c[nH]c2ncnc(N3CCC[C@H]3c3nn4ccc(C5CC5)c4c(=O)n3-c3ccccc3)c12 [Compound 52] | 89.3% | 0.107 µM | 87.2% | 0.11 µM | 8.8% | –
4 | Nc1nc(N2CCC[C@H]2c2nn3ccc(C4CC4)c3c(=O)n2-c2ccccc2)c2nc[nH]c2n1 [Compound 53] | 86.4% | 0.035 µM | 68.8% | – | −11.0% | –
5 | Nc1nc2cccc(N3CCC[C@H]3c3nn4ccc(Cl)c4c(=O)n3-c3ccccc3)n2n1 [Compound 54] | 11.9% | – | 90.1% | 0.207 µM | 26.0% | –
6 | N#Cc1c[nH]c2ncnc(N3CC[C@H]3c3nn4ccc(Br)c4c(=O)n3-c3ccccc3)c12 [Compound 55] | 99.5% | 0.067 µM | 97.6% | 0.008 µM | 23.8% | –
7 | O=c1c2c(Br)ccn2nc([C@@H]2CCN2c2ncnc3[nH]cnc23)n1-c1ccccc1 [Compound 56] | 83.9% | – | 91.1% | – | 21.7% | –
8 | O=c1c2c(Cl)ccn2nc([C@@H]2CC(F)(F)CN2c2ncnc3[nH]cnc23)n1-c1ccccc1 [Compound 57] | 88.3% | 0.239 µM | 98.2% | 0.013 µM | 37.1% | –
9 | N#Cc1c[nH]c2ncnc(N3CC[C@H]3c3nn4ccc(Cl)c4c(=O)n3CC(F)F)c12 [Compound 59, (S)-4-(2-(5-chloro-3-(2,2-difluoroethyl)-4-oxo-3,4-dihydropyrrolo[2,1-f][1,2,4]triazin-2-yl)azetidin-1-yl)-7H-pyrrolo[2,3-d]pyrimidine-5-carbonitrile] | 45.8% | – | 73.6% | 0.392 µM | 34.7% | –
10 | N#Cc1c[nH]c2ncnc(N3CC[C@H]3c3nn4ccc(Cl)c4c(=O)n3Cc3ccccn3)c12 [Compound 60] | 29.5% | – | 69.0% | 0.325 µM | 3.2% | –
11 | N#Cc1c[nH]c2ncnc(N3CC[C@H]3c3nn4ccc(Cl)c4c(=O)n3Cc3cccnc3)c12 [Compound 61] | 45.1% | – | 73.9% | 0.309 µM | 7.9% | –
12 | Cn1c([C@@H]2CCCN2c2ncnc3[nH]cc(C#N)c23)nn2ccc(Cl)c2c1=O [Compound 63] | >100% | 0.081 µM | 97.7% | – | 93.7% | 0.061 µM
13 | N#Cc1c[nH]c2ncnc(N3CCC[C@H]3c3nn4ccc(Cl)c4c(=O)n3CC(F)(F)F)c12 [Compound 67] | 61.0% | – | 98.1% | 0.007 µM | 71.3% | 0.188 µM
14 | O=c1c2c(Cl)ccn2nc([C@@H]2CCCN2c2ncnc3[nH]cnc23)n1Cc1ccccn1 [Compound 68] | 73.8% | 0.078 µM | 98.5% | 0.028 µM | 52.1% | –
15 | CO[C@@H]1C[C@@H](c2nn3ccc(Cl)c3c(=O)n2-c2ccccc2)N(c2ncnc3[nH]cnc23)C1 [Compound 72, 5-chloro-2-((2S,4R)-4-methoxy-1-(9H-purin-6-yl)pyrrolidin-2-yl)-3-phenylpyrrolo[2,1-f][1,2,4]triazin-4(3H)-one] | 49.5% | – | 91.6% | 0.088 µM | 13.5% | –

The next lines start with the values.

Row | PI3Kγ IH % @ 1 uM (p110γ) | IC50 (p110γ) | PI3Kδ IH % @ 1 uM (p110δ/p85α) | IC50 (p110δ/p85α) | PI3Kβ IH % @ 1 uM (p110β/p85α) | IC50 (p110β/p85α) | SMILES
16 | 97.6% | 0.073 µM | >100% | 0.005 µM | 45.5% | – | N#Cc1c[nH]c2ncnc(N3CC(F)(F)C[C@H]3c3nn4ccc(Cl)c4c(=O)n3-c3ccccc3)c12 [Compound 58]
17 | >100% | 0.009 µM | >100% | 0.001 µM | >100% | 0.031 µM | N#Cc1c[nH]c2ncnc(N3C[C@@H](O)C[C@H]3c3nn4ccc(Cl)c4c(=O)n3-c3ccccc3)c12 [Compound 71]
18 | >100% | – | >100% | 0.001 µM | >100% | 0.025 µM | N#Cc1c[nH]c2ncnc(N3C[C@@H](F)C[C@H]3c3nn4ccc(Cl)c4c(=O)n3-c3ccccc3)c12 [Compound 74]
19 | 97.3% | 0.008 µM | 99.1% | 0.003 µM | 69.3% | 0.096 µM | CC(Nc1ncnc2[nH]cnc12)c1cn2ccc(Cl)c2c(=O)n1-c1cccc(F)c1 (stereo not drawn) [Compound 75, 3-(1-(9H-purin-6-ylamino)ethyl)-8-chloro-2-(3-fluorophenyl)pyrrolo[1,2-a]pyrazin-1(2H)-one]
20 | 93.9% | – | 98.8% | – | 82.0% | 0.104 µM | CC(Nc1ncnc2[nH]cc(C#N)c12)c1cn2ccc(Cl)c2c(=O)n1-c1cccc(F)c1 (stereo not drawn) [Compound 76]
21 | 91.2% | – | 98.2% | – | 92.4% | – | CC(Nc1ncnc2[nH]cnc12)c1cn2ccc(Cl)c2c(=O)n1-c1ccc(F)cc1 (stereo not drawn) [Compound 78]
22 | 91.6% | – | 99.0% | – | 96.3% | – | CC(Nc1ncnc(N)c1C#N)c1cn2ccc(Cl)c2c(=O)n1-c1ccc(F)cc1 (stereo not drawn) [Compound 79]
23 | 83.5% | – | >100% | – | 58.9% | – | CC(Nc1ncnc2[nH]cnc12)c1cn2ccc(Cl)c2c(=O)n1-c1cc(F)cc(F)c1 (stereo not drawn) [Compound 80]
24 | 87.9% | – | >100% | – | 79.0% | 0.217 µM | CC(Nc1ncnc(N)c1C#N)c1cn2ccc(Cl)c2c(=O)n1-c1cc(F)cc(F)c1 (stereo not drawn) [Compound 81]
25 | 78.6% | 0.194 µM | 98.7% | – | 56.4% | – | CC(Nc1ncnc2[nH]cc(C#N)c12)c1cn2cccc2c(=O)n1-c1ccccc1 (stereo not drawn) [Compound 82]
26 | 78.6% | 0.309 µM | 97.3% | – | 42.7% | – | CC(Nc1ncnc2[nH]cnc12)c1cn2cccc2c(=O)n1-c1ccccc1 (stereo not drawn) [Compound 83]
27 | 98.0% | 0.014 µM | 93.2% | – | 94.7% | 0.058 µM | CC(Nc1ncnc2[nH]cc(C#N)c12)c1cn2ccc(Cl)c2c(=O)n1-c1ccccc1 (stereo not drawn) [Compound 88]
28 | 94.8% | – | >100% | – | 96.1% | 0.017 µM | CC(Nc1ncnc(N)c1C#N)c1cn2ccc(Cl)c2c(=O)n1-c1ccccc1 (stereo not drawn) [Compound 89]
29 | 95.7% | 0.034 µM | >100% | – | 93.1% | 0.024 µM | Cc1ccn2cc(C(C)Nc3ncnc(N)c3C#N)n(-c3ccccc3)c(=O)c12 (stereo not drawn) [Compound 90, 4-amino-6-(1-(8-methyl-1-oxo-2-phenyl-1,2-dihydropyrrolo[1,2-a]pyrazin-3-yl)ethylamino)pyrimidine-5-carbonitrile]
30 | 53.7% | – | 77.6% | 0.244 µM | 5.4% | – | CC(Nc1ncnc2[nH]cnc12)c1cn2ccc(-c3cnn(C)c3)c2c(=O)n1-c1ccccc1 (stereo not drawn) [Compound 93, 3-(1-(9H-purin-6-ylamino)ethyl)-8-(1-methyl-1H-pyrazol-4-yl)-2-phenylpyrrolo[1,2-a]pyrazin-1(2H)-one]
